PubChem BioAssay (NCI)
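Each compound was tested at five concentrations against cells in 96-well plates for 48 hours. At the TGI there is no net growth.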

How the values were obtained:
Experiment in all cases: growth of human tumour cells (NCI), 48 h
[1] = system: SK-MEL-2 melanoma
[2] = system: UACC-257 melanoma
[3] = system: COLO 205 colon
[4] = system: A549 NSCLC
[5] = system: DU-145 prostate
[6] = system: SK-MEL-5 melanoma
[7] = system: TK-10 renal
[8] = system: MOLT-4 leukemia
[9] = system: HOP-92 NSCLC
[10] = system: ACHN renal
[11] = system: HT29 colon
[12] = system: HCT-15 colon
[13] = system: SNB-19 CNS
[14] = system: MALME-3M melanoma
[15] = system: HOP-62 NSCLC
[16] = system: K-562 leukemia
[17] = system: EKVX NSCLC
[18] = system: NCI/ADR-RES ovarian
[19] = system: SN12C renal
[20] = system: HL-60(TB) leukemia
[21] = system: SNB-75 CNS
[22] = system: OVCAR-4 ovarian
[23] = system: KM12 colon
[24] = system: MDA-MB-231 breast
[25] = system: OVCAR-3 ovarian
[26] = system: HCT-116 colon
[27] = system: U251 CNS
[28] = system: OVCAR-5 ovarian
[29] = system: SF-268 CNS
[30] = system: CCRF-CEM leukemia
[31] = system: CAKI-1 renal
[32] = system: SF-295 CNS
[33] = system: RXF 393 renal
[34] = system: BT-549 breast
[35] = system: SW-620 colon
[36] = system: SK-OV-3 ovarian
[37] = system: SK-MEL-28 melanoma
[38] = system: RPMI-8226 leukemia
[39] = system: M14 melanoma
[40] = system: UO-31 renal
[41] = system: SR leukemia
[42] = system: HS 578T breast
[43] = system: NCI-H226 lung
[44] = system: 786-0 renal
[45] = system: NCI-H23 lung
[46] = system: MDA-N
[47] = system: MCF7 breast
[48] = system: NCI-H460 lung
[49] = system: IGROV1 ovarian
[50] = system: T-47D breast
[51] = system: UACC-62 melanoma
[52] = system: LOX IMVI melanoma
[53] = system: SF-539 CNS
[54] = system: PC-3 prostate
[55] = system: NCI-H522 lung
[56] = system: OVCAR-8 ovarian
[57] = system: MDA-MB-435
[58] = system: HCC-2998 colon

Nc1ccc(S(=O)(=O)Nc2nc3ccccc3nc2Nc2ccc(S(N)(=O)=O)cc2)cc1 showed a TGI [1] of 45.6 µM, a TGI [2] of over 100 µM and a TGI [3] of over 100 µM. For the same compound, the TGI [4] was over 100 µM, the TGI [5] was over 100 µM and the TGI [6] was over 100 µM. It also gave a TGI [7] of over 100 µM, a TGI [8] of 93.3 µM and a TGI [9] of over 100 µM. The TGI [10] was over 100 µM, the TGI [11] was over 100 µM and the TGI [12] was over 100 µM. It also gave a TGI [13] of over 100 µM, a TGI [14] of 97.4 µM and a TGI [15] of over 100 µM. It also gave a TGI [16] of over 100 µM, a TGI [17] of over 100 µM and a TGI [18] of over 100 µM. It also gave a TGI [19] of over 100 µM, a TGI [20] of 63.2 µM and a TGI [21] of 69.6 µM. It also gave a TGI [22] of 49.7 µM, a TGI [23] of over 100 µM and a TGI [24] of over 100 µM. For the same compound, the TGI [25] was over 100 µM, the TGI [26] was over 100 µM and the TGI [27] was over 100 µM. The TGI [28] was over 100 µM, the TGI [29] was 60.7 µM and the TGI [30] was over 100 µM. It also gave a TGI [31] of over 100 µM, a TGI [32] of 72.1 µM and a TGI [33] of 62 µM. For the same compound, the TGI [34] was 62.1 µM, the TGI [35] was over 100 µM and the TGI [36] was over 100 µM. The TGI [37] was over 100 µM, the TGI [38] was over 100 µM and the TGI [39] was over 100 µM. It also gave a TGI [40] of 56.2 µM, a TGI [41] of over 100 µM and a TGI [42] of over 100 µM. For the same compound, the TGI [43] was over 100 µM, the TGI [44] was over 100 µM and the TGI [45] was 48 µM. For the same compound, the TGI [46] was over 100 µM, the TGI [47] was over 100 µM and the TGI [48] was over 100 µM. It also gave a TGI [49] of over 100 µM, a TGI [50] of over 100 µM and a TGI [51] of over 100 µM. It also gave a TGI [52] of 38.3 µM, a TGI [53] of over 100 µM and a TGI [54] of over 100 µM. The TGI [55] was 96.6 µM, the TGI [56] was over 100 µM and the TGI [57] was over 100 µM.
CCOC(=O)CC/C(C)=N\n1c(Cc2ccc(Cl)cc2)n[nH]c1=O was tested, and the TGI [1] was over 100 µM, the TGI [2] was over 100 µM and the TGI [4] was over 100 µM. It also gave a TGI [5] of over 100 µM, a TGI [6] of over 100 µM and a TGI [7] of over 100 µM. For the same compound, the TGI [8] was over 100 µM, the TGI [10] was over 100 µM and the TGI [11] was over 100 µM. It also gave a TGI [12] of over 100 µM, a TGI [13] of over 100 µM and a TGI [14] of over 100 µM. For the same compound, the TGI [15] was over 100 µM, the TGI [16] was over 100 µM and the TGI [18] was over 100 µM. It also gave a TGI [19] of over 100 µM, a TGI [20] of over 100 µM and a TGI [21] of over 100 µM. For the same compound, the TGI [23] was over 100 µM, the TGI [24] was over 100 µM and the TGI [25] was over 100 µM. It also gave a TGI [58] of over 100 µM, a TGI [26] of over 100 µM and a TGI [27] of over 100 µM. It also gave a TGI [28] of 55.5 µM, a TGI [29] of over 100 µM and a TGI [31] of over 100 µM. For the same compound, the TGI [32] was over 100 µM, the TGI [33] was over 100 µM and the TGI [34] was over 100 µM. For the same compound, the TGI [35] was over 100 µM, the TGI [37] was over 100 µM and the TGI [38] was over 100 µM. It also gave a TGI [39] of over 100 µM, a TGI [40] of over 100 µM and a TGI [41] of over 100 µM. The TGI [42] was over 100 µM, the TGI [43] was over 100 µM and the TGI [44] was over 100 µM. The TGI [45] was over 100 µM, the TGI [46] was over 100 µM and the TGI [47] was over 100 µM. It also gave a TGI [48] of over 100 µM, a TGI [49] of over 100 µM and a TGI [50] of over 100 µM. It also gave a TGI [51] of over 100 µM, a TGI [52] of over 100 µM and a TGI [53] of over 100 µM. For the same compound, the TGI [54] was over 100 µM, the TGI [55] was over 100 µM and the TGI [56] was over 100 µM. The TGI [57] was over 100 µM.
